Assay results from paper PMC8400920, “Metabolism of Diterpenoids Derived from the Bark of Cinnamomum cassia in Human Liver Microsomes” (Pharmaceutics, 2021).
Where a name gives a salt, the structure may show the parent alone.

Tests used:
[1] = system: CYPs; experiment: Metabolism of AHC in HLMs with SKF-525A, a nonselective CYP inhibitor; type: in vitro ADME, human; conditions: 10 µM AHC, 1 mg/mL HLMs, NGS, 60 min
Experimental: To investigate CYP-mediated metabolism, 10 µM AHC was mixed with 1 mg/mL pooled HLMs and 0.1 M potassium phosphate buffer (pH 7.4). Then, SKF-525A, a general inhibitor of CYPs, was added at concentrations of 0.5, 1, and 5 mM. The reactions were initiated with the addition of NGS at […] for 60 min. After 60 min, the reactions were terminated by adding 400 µL of 100% acetonitrile. The mixtures were then centrifuged at 15,700× g for 10 min. Subsequently, 550 µL of supernatant was dried in a vacuum concentrator. The residue was dissolved in 100 µL of 20% MeOH (0.1% formic acid), and 5 µL of this sample was injected into a C18 column for LC–MS/MS analysis.
To confirm the metabolism of AHC by CYP enzymes, AHC was incubated in HLMs with SKF-525A, i.e., a nonspecific CYP inhibitor (Figure S7). […] Consequently, as the metabolism of AHC was inhibited by SKF-525A treatment, the production of all metabolites was reduced in an SKF-525A concentration-dependent manner.

[2] = system: human liver microsomes (HLMs); experiment: Metabolic stability of seven diterpenoids in human liver microsomes; type: in vitro ADME; conditions: 10 µM, 0.5 mg/mL HLMs, NGS, 37 °C
Experimental: For metabolism profiling, 10 µM of each of the seven compounds isolated from C. cassia bark was added to 0.5 mg/mL of pooled HLMs and 0.1 M potassium phosphate buffer (pH 7.4). The HLMs were then preincubated at 37 °C for 1 min. After adding NGS, the reaction mixture was incubated at 37 °C for 60 min. After the 60 min incubation period, 50 µL of the reaction mixture was transferred to a new tube, and 50 µL of 100% ACN containing 0.1% formic acid and tolbutamide (internal standard) was added to terminate the reaction. The mixture was then vortexed, followed by centrifugation at 15,700× g (13,000 rpm) for 10 min (Eppendorf AG, Hamburg, Germany). Finally, 90 µL of the supernatant was transferred to a vial and injected into a C18 column for LC–MS/MS analysis.
The metabolism screening of the seven compounds was performed using an HPLC system (Thermo Fisher Scientific, Bremen, Germany) equipped with an HPG-3200SD standard binary pump, a WPS-3000 TRS analytical autosampler, and a TCC-3000 SD column compartment. The HPLC system was coupled with an HR-MS (Q-Exactive Focus Quadrupole-Orbitrap MS; Thermo Fisher Scientific, Waltham, MA, USA) at the Mass Spectrometry Convergence Research Center. The full MS resolution and scan ranges were 70,000 and 60–900 m/z, respectively. The MS/MS resolution was 35,000. The mass spectra were obtained in negative ion electrospray mode. A heated electrospray ionization (HESI-II) probe was used as an ion generator, with nitrogen as the sheath gas at 35 aux units and auxiliary gas at 12 aux units. The mass spectrometer was operated in negative ionization mode. The other parameters were as follows: spray voltage, 3.5 kV; capillary temperature, 320 °C; S-lens radio frequency level, 50; and aux gas heater temperature, 400 °C.
The mobile phase consisted of 100% water with 0.1% formic acid (mobile phase A) and 100% ACN with 0.1% formic acid (mobile phase B). For metabolic stability, the gradient conditions were set as follows: 5% of B at 0.5–2.0 min, 5–50% of B at 2.0–4.5 min, 50% of B at 4.5–7.0 min, and 50–5% of B at 7.0–10.0 min at 40 °C with a flow rate of 0.2 mL/min. For metabolite identification, the gradient conditions were as follows: 10% of B at 0–5 min, 10–55% of B at 5–15 min, 55% of B at 15–23 min, and 55–10% of B at 23–30 min with a flow rate of 0.25 mL/min. Chromatographic separation was performed using a Kinetex C18 column (150 × 2.1 mm, 2.6 μm, XB-C18 100 Å, S/No: H19-070128; Phenomenex, Torrance, CA, USA). Data were analyzed using Xcalibur version 4.0 software (Thermo Fisher Scientific, Waltham, MA, USA).
To confirm their metabolic stability, seven diterpenoids (AHC, anhydrocinnzeylanol, cinncassiol A, cinncassiol B, cinnzeylanol, cinnzeylanone, and cinnzeylanine) derived from the bark of C. cassia were incubated with HLMs in the presence of the NGS for 60 min (Figure 1B). The metabolic stability of each compound was determined according to the ratio of the peak area at 60 min to that at 0 min. […] Therefore, we identified the metabolites of AHC produced in HLMs.

SMILES	effect of SKF-525A on the metabolism of AHC in HLMs [1]	decrease of stability in HLMs (peak area 60 min vs 0 min) [2]	fraction metabolized in HLMs (metabolized by) ([2]; 60 min) [%]
CCCC(C(=O)OCCN(CC)CC)(c1ccccc1)c1ccccc1 [SKF-525A, proadifen hydrochloride, reference compound]	inhibited		
CC1=C(C(C)C)C[C@@]2(O)[C@@]3(C)CC(=O)O[C@@]4([C@H](O)[C@@H](C)CC[C@]34O)[C@@]12O [anhydrocinnzeylanol]		approximately 20%	20
CC1CCC2(O)C3(C)CC4(O)OC2(C1=O)C1(O)C3(O)CC(O)(C(C)C)C41C (stereo not shown) [cinnzeylanone]		approximately 20%	
